We go through six compounds from patent publication US20100138935A1, “Detection of cellular stress” (priority 2004, published 2010).

Where two headings read alike, the source gives them in different places.

The term LD50 denotes the dose expected to kill half of the subjects tested.

The subject of one data set is p21-LacZ (WAZ) transgene. Type of data set: in vivo, mouse. As to the method:
(§1) Each test compound was dissolved in the appropriate vehicle solution and administered by intraperitoneal injection (i.p.) at a dose volume of 10 ml/kg. Wherever possible, both naive (untreated) and vehicle-treated controls were used. If a test item whose toxicity in the mouse is poorly characterised was to be used, a dose-ranging experiment was conducted prior to the main experiment. The test item was administered to a single mouse which was monitored for any adverse effects 6-8 hours and 24 hours later. If the single dose ranging mouse tolerated the treatment, the remaining mice were administered the test item according to the protocol.
(§2) Two slices of tissue (˜2 mm thickness) were removed for histochemical analysis of LacZ expression according to methods described below.
Mouse brains were dissected so as to reveal the dentate gyrus as fully as possible. In the case of the kidneys, one kidney was cut in longitudinal section and the other in transverse section.
(§3) Tissues were washed with PBS and prefixed in 0.2% glutaraldehyde in PBS containing 0.1M MgCl2 and 5 mM EDTA, pH 7.3, for 4 hours at 4° C. on a shaker. After fixation, the tissues were transferred to 20% Sucrose solution and dehydrated overnight at 4° C. The next day they were embedded in cryo-M-bed medium on cork discs and lowered slowly into liquid nitrogen then transferred to −80° C. until sections were required.
(§4) Cryostat sample and chamber temperatures were set to −30° C. The sample to be sectioned was placed in the cryostat one hour prior to sectioning to allow equilibration at the appropriate temperature. Frozen sections (10 μm) were cut and placed on aminopropyltriethoxysilane (APES) coated slides.
(§5) Prior to staining, sections were incubated in 0.2% glutaraldehyde (as above) for 10 minutes at room temperature then washed twice (5 min each) in PBS containing 2 mM MgCl2, 0.01% sodium deoxycholate and 0.02% % Nonidet-P40. Sections were then […] the same wash solution containing 1 mg/ml X-gal, 5 mM potassium ferrocyanide and 5 mM potassium ferricyanide overnight at 37° C. then washed twice in PBS for 5 min, allowed to air dry and mounted in aqueous mounting medium (Hydromount). Slides were evaluated and photographed. • Frozen Method 2
In experiments on WAZ44 mice, single doses of etoposide (of up to 40 mg/kg) were administered i.p. Animals were killed after 24 hours and tissues fixed and stained for LacZ expression.
Acrylamide, at a total dose of 150 mg/kg, induces neuropathy manifesting as partial paralysis approximately 7 days after the start of treatment. The dose may be administered as a single injection or divided; however, the effect depends upon the total dose, and since a single dose of 150 mg/kg is likely to be acutely toxic, a five-day coursed of injections of 30 mg/kg is preferred. Acrylamide intoxication is associated with both central and peripheral effects; the central effects include behavioural changes (increased milk-licking) which occur within two days of dosing, preceding peripheral changes such as reduced hind-limb grip and reduced locomotor activity by up to three weeks (Teal and Evans, 1982). In experiments on WAZ44 mice, five doses of acrylamide (30 mg/kg) were administered i.p.
A frozen section from the brain of an acrylamide-treated WAZ44 mouse was prepared and stained using Frozen Method 1. A dissecting microscope was used to view the slides and generate photomicrographs (a) transverse section of whole brain, original magnification ×10; (b) dentate gyrus and hippocampus, original magnification ×25 (c) cortex, original magnification ×63.
WAZ mice received single i.p. injections of etoposide (40 mg/kg); mercuric chloride (HgCl2, 8.5 mg/kg); lipopolysaccharide (LPS, 1.5 mg/kg) or paracetamol (300 mg/kg). WAZ mice received a single i.p. injection of each compound at a single dose level (see FIG. 5). Twenty-four hours later, the mice were killed and the brains sectioned and stained for LacZ expression.

The subject of data set [1] is HO-1-LacZ reporter transgene in HEK293 cells. Kind of data set: Transient transfection of HO-1-LacZ reporter construct into HEK293 cells, induction with haemin. Type of data set: cell-based, mouse. From the text: We have used RedET recombination cloning (Zhang et al., 2000) to produce a HO-1-LacZ reporter transgene. A LacZ-SV40polyA minigene was engineered to contain homologous regions to exons 1 and 2 of the HO-1 gene. This minigene cassette also contains a bacterial Amp gene, at the 3′-end, which was used as a selectable marker during cloning. The minigene was then introduced, by homologous recombination, into a BAC clone containing the mouse HO-1 locus (clone RPCI-23 290L07, HGMP Resource Centre) substituting for the endogenous HO-1 exon1 and intron1 sequences. Thus, the HO-1 promoter would express LacZ from the ATG start codon, in place of the HO-1 protein. The correct position of the LacZ-SV40polyA minigene was confirmed by sequencing both the 5′- and 3′-junction regions. The HO-1 reporter locus, containing most of the HO-1 gene together with 16.5 kb of upstream promoter and 8 kb of 3′ sequence, was then recombined out from the BAC clone into the pACYC low copy number plasmid backbone.

Data set [2] concerns HO-1-LacZ (HOZ) transgene. Kind of data set: LacZ transgene expression in HO-1-LacZ (HOZ) reporter mice. The data set is classed as in vivo, mouse. The settings on record: female HOZ mice, 13 mg/kg i.p. in isotonic saline, 8 hours or 24 hours. As to the method:
as §1, §2, §3, §4, §5
Tissues were excised, immediately placed into chilled 4% paraformaldehyde containing 0.1% glutaraldehyde and 2 mM MgCl2 in PBS, and fixed in the above solution for 3 hours at 2-8° C. with gentle shaking. Fixed tissues were washed at 2-8° C. for 3×5 minutes with chilled PBS containing 2 mM MgCl2 and dehydrated overnight at 2-8° C. in PBS containing 2 mM MgCl2 and 30% (w/v) sucrose overnight The next day dehydrated tissues were embedded in OCT embedding medium using an isopentane/dry ice bath. Embedded tissues were stored at −70° C. until they could be cryosectioned.
Frozen sections were washed three times for 5 minutes in PBS containing 2 mM MgCl2 at 2-8° C. then 3×30 min in detergent wash (PBS containing 2 mM MgCl2 0.01% Nonidet P40 and 0.1% Sodium Deoxycholate) at 2-8° C. They were then stained overnight in PBS containing 2 mM MgCl2, 0.02% Nonidet P40, 0.1% Sodium Deoxycholate, 5 mM Potassium ferrocyanide, 5 mM Potassium ferricyanide, and 0.1% X-gal at 37° C. The next day, the slides were washed three times for 5 minutes in PBS containing 2 mM MgCl2 followed by three times for 5 minutes in PBS at room temperature. They were equilibrated with 100% ethanol (5 min) and counterstained with Eosin for 1 min at room temperature. Following dehydration and mounting they were evaluated and photographed. • Whole Mount Method
Tissue specimens that had been prefixed in fresh 4% paraformaldehyde were stained immediately using the procedure for “Whole Mount X-Gal Histochemistry of Transgenic Animal Tissues” (see http://www.rodentia.com/wmc/docs/lacZ bible.html), summarised below) was followed, and the post-fixed tissues were transferred to 70% (v/v) ethanol.
Following fixation for one hour in 4% paraformaldehyde, tissues were rinsed three times, for thirty minutes each, with rinse buffer (100 mM sodium phosphate (pH 7.3), 2 mM MgCl2, 0.01% sodium deoxycholate, 0.02% NP-40) at room temperature. […]

In data set [3] the test system is HOZ mice. The data set is described as follows: Plasma ALT as a marker of hepatotoxicity in HOZ mice. The data set is classed as in vivo, mouse. The settings on record: 13 mg/kg; for Plasma ALT: female. As to the method: (§6) Terminal blood samples were taken by cardiac puncture into lithium/heparin-coated tubes for preparation of plasma. Tissues, as defined in each protocol, were routinely dissected as follows:
(§7) Following removal into tubes suitable for plasma preparation, venous blood samples were mixed on a roller for 10 minutes then cooled on ice. Red blood cells were removed by centrifugation at 2,000 rpm for 10 minutes at 8-10° C. The supernatant (plasma) was transferred to a second tube and stored at −70° C. until required for analysis.
(§8) Plasma samples were analysed for appropriate analytes on a Roche autoanalyser (Cobas Integra 400) according to the manufacturer's instructions. The routine markers measured included: (for liver damage) plasma alanine aminotransferase (ALT), aspartate aminotransferase (AST) and alkaline phosphatase (ALP) and (for kidney damage) plasma creatinine and blood urea nitrogen (BUN).
Two plasma enzyme markers, ALT and AST, were used as markers of hepatotoxicity in HOZ mice treated with cadmium chloride or sodium arsenite. The results of this analysis for HOZ mice treated with 10 mg/kg cadmium chloride are shown in Table 1 and for HOZ mice treated with 2-8 mg/kg cadmium chloride or 13 mg/kg sodium arsenite in Tables 2 and 3.

The test system of data set [4] is HOZ mice. Kind of data set: Plasma AST as a marker of hepatotoxicity in HOZ mice. The data set is classed as in vivo, mouse. To be noted: female, 13 mg/kg. The procedure:
as §6, §7, §8
Two plasma enzyme markers, ALT and AST, were used as markers of hepatotoxicity in HOZ mice treated with cadmium chloride or sodium arsenite. […]

Data set [5] relates to HOZ mice. The data set is described as follows: BUN as a marker of nephrotoxicity in HOZ mice. Type of data set: in vivo, mouse. To be noted: female, 13 mg/kg. The procedure:
as §6, §7, §8
The increase in BUN was 6-fold at 8 hours and 44-fold after 24 hours.

The conditions of data set [6]: dissolved in DMSO, injected intra-peritoneally; cited from earlier work.
[7] abbreviates: WAZ mice, single i.p. injection (etoposide 40 mg/kg; HgCl2 8.5 mg/kg; LPS 1.5 mg/kg; paracetamol 300 mg/kg), 24 hours.

For `[Cl][Hg][Cl]` [mercuric chloride], in the data set with p21-LacZ (WAZ) transgene (setting [7]), the “expression of the WAZ transgene in the brain” value (from here on “expression … in the brain”) was “high levels of expression” and the “pattern of WAZ transgene induction in the brain” value (“pattern” below) was “induced expression in the same cells within the various regions in the brain”.

Turning to `C=CC1=C(C)c2cc3[n-]c(cc4nc(cc5[n-]c(cc1n2)c(C)c5C=C)C(C)=C4CCC(=O)O)c(CCC(=O)O)c3C.[Cl-].[Fe+3]` [haemin], the “increase in the LacZ labelling index over uninduced control cells” value in data set [1] amounted to 11 fold.

In the case of `O=[As]O` [Sodium Arsenite, sodium arsenite], the “HOZ transgene expression in liver” value in data set [2] is “expression of the HOZ transgene at both time points”. Further, the “hepatotoxic response (plasma ALT, AST)” value in the data set on HOZ mice [3] (HOZ mice) is “did not exhibit a hepatotoxic response”. Also, the “Plasma ALT” value came out at 43.0 u/L with HOZ mice [3] (8 hours) and 26.7 u/L in the data set with HOZ mice [3] (24 hours). Besides, the results for the “Plasma AST” value with HOZ mice [4] (8 hours) and with HOZ mice [4] (24 hours) were 107.3 u/L and 67.8 u/L, respectively. Moreover, the BUN with HOZ mice [5] (8 hours) is given as 5.62; in the data set with HOZ mice [5] (24 hours), 3.50.

Turning to `COc1cc([C@@H]2c3cc4c(cc3[C@@H](O[C@@H]3O[C@@H]5CO[C@@H](C)O[C@H]5[C@H](O)[C@H]3O)[C@H]3COC(=O)[C@H]23)OCO4)cc(OC)c1O` [etoposide], the “LacZ transgene expression in tissues” value in the data set with p21-LacZ (WAZ) transgene (WAZ44 mice, single doses of up to 40 mg/kg i.p., killed after 24 hours) is “significant expression in the spleen, the thymus and in some regions of the brain”. Further, in the data set with p21-LacZ (WAZ) transgene (mouse, in vivo), the “expression … in the brain” value is given as “high levels of expression” and the “pattern” value is reported as “induced expression in the same cells within the various regions in the brain”. The LD50 in data set [6] is listed as 40 mg/kg.

As for lipopolysaccharide [LPS], in the data set with p21-LacZ (WAZ) transgene (setting [7]), the “expression … in the brain” value is “high levels of expression” and the “pattern” value is reported as “induced expression in the same cells within the various regions in the brain”.

With `CC(=O)Nc1ccc(O)cc1` [paracetamol], in the data set with p21-LacZ (WAZ) transgene (mouse, in vivo), the “expression … in the brain” value was “high levels of expression”; the “pattern” value was “distinct pattern of induction within the hippocampus, cerebellum and cortex”.
